Laboratory results reported in publication PMC7718273 (Scientific Reports, 2020).
“Also recorded” adds a separate entry of the source.

Legend:
[1] = system: CDAHFD NASH mouse model; experiment: In vivo study using CDAHFD mice (NASH model); parameters: species or system C57BL/6J mice; details: positive control 3 mg/kg p.o. for 10 weeks
Description: C57BL/6J mice were fed normal chow diet (n = 5) or choline-deficient, L-amino acid-defined, high-fat diet (CDAHFD) for 4 weeks to induce NASH (n = 8–10/group). […] (a) Relative FAP activity was assessed by FRET-quench and serum FGF21 level at week 14. […] (c) Steatosis scores ranged from 0 to 3 (normal = 0, minimal = 1, moderate = 2, marked = 3) were determined. Hepatic steatosis and fibrosis (Picrosirius red stain) were analyzed in a blinded manner or by digital image analyzer. (d–e) Histological evaluations of liver tissue were performed in each group. Paraffin-embedded liver sections were stained with H&E (d) and Sirius red (e). Representative photographs of each group were presented. Images were obtained at 100x (Scale bar = 50 µm).
Male C57BL/6J mice (5 weeks of age) were fed with a CDAHFD consisting of 60% kcal fat and 0.1% methionine. […] For the CDAHFD model, compound treatments were started at the beginning of week 4 on the diet and continued until week 14. […] Liver tissue was then collected. All other measurements were done similarly as described above. Staining was performed using H&E and Picrosirius red as described previously. Areas of positive Sirius red were quantified by computer-based morphometric analysis.

[2] = system: diet-induced obese mice; parameters: method as in PMID 27689014; details: cited from earlier work
[3] = system: ob/ob mice; experiment: Acute study using ob/ob mice: blood glucose and intact hFGF21; details: hFGF21 0.1 mg/kg i.p. alone
Description: Blood was collected at the indicated time points. (a) Nonfasting blood glucose levels were measured at the indicated time points. […] (c) Plasma intact hFGF21 levels were measured using ELISA kit at 1, 3, 6, and 9 h. All data are the means ± S.D. *P < 0.05, **P < 0.01 and *** P < 0.001 vs. vehicle group.
Blood was promptly collected by orbital bleeding that was allowed to clot, and supernatant was collected after centrifugation at 4 °C at 3000 rpm. Serum intact FGF21 concentrations were measured by intact hFGF21 ELISA (Alpco, Keewaydin Dr, Salem, NH, catalog no. 43-FGFHU-E01)[29].

[4] = animals administered with Talabostat alone

O=C(O)c1cc(F)c2nc(N3[C@@H]4CC[C@H]3C[C@@H](OCc3c(-c5ccccc5OC(F)(F)F)noc3C3CC3)C4)sc2c1 [LJN, Tropifexor, reference compound]
all parameters of the CDAHFD study [1]: All parameters showed improvements

CC(C)[C@H](N)C(=O)N1CCC[C@H]1B(O)O [Talabostat]
adiposity [2, 4]: decreased
body weight [2, 4]: decreased
food consumption [2, 4]: decreased
endogenous intact FGF21 level ([2]; diet-induced obese mice): increased
insulin resistance / insulin sensitivity ([2]; diet-induced obese mice): improved insulin resistance; also recorded: improved insulin sensitivity

B1: hFGF21: full-length recombinant human FGF21 from Cell Science, given i.p. alone or with BR103354 (protein, UniProt Q9NSA1 29-209, looked up)
Fibroblast growth factor 21: HPIPDSSPLLQFGGQVRQRYLYTDDAQQTEAHLEIREDGTVGGAADQSPESLLQLKALKPGVIQILGVKTSRFLCQRPDGALYGSLHFDPEACSFRELLLEDGYNVYQSEAHGLPLHLPGNKSPHRDPAPRGPARFLPLPGLPPALPEPPGILAPQPPDVGSSDPLSMVGPSQGRSPSYAS
decrease of blood glucose AUC [3]: about 20%
nonfasting blood glucose level, maximum average reduction to ([3]; 3 h, starting from 340 mg/dL): 230 mg/dL
